Calls of active or inactive are those of the source. No cut-off for these calls is given here.
Tests used:
Oryctolagus cuniculus [1] = species: Oryctolagus cuniculus; assay: Reduction of cell viability in rabbit HIG82 cells at 2 uM followed by illumination at 2.5 W/cm'2 cold light for 40 seconds by XTT assay; assay type: functional, cell-based
Pseudomonas aeruginosa = assay: Antimicrobial activity against […] Pseudomonas aeruginosa DSM1117 on exposure to 2.5 W/cm'2 cold light for 40 secs at 1 to 100 uM; assay type: functional, organism-based
J774.A1 [2] = assay: Reduction of cell viability in mouse J774A.1 cells at 10 uM followed by illumination at 2.5 W/cm'2 cold light for 40 seconds by XTT assay; assay type: functional, cell-based
J774.A1 [3] = assay: Reduction of cell viability in mouse J774A.1 cells at 2 uM followed by illumination at 2.5 W/cm'2 cold light for 40 seconds by XTT assay; assay type: functional, cell-based
Oryctolagus cuniculus [4] = species: Oryctolagus cuniculus; assay: Reduction of cell viability in rabbit HIG82 cells at 10 uM followed by illumination at 2.5 W/cm'2 cold light for 40 seconds by XTT assay; assay type: functional, cell-based
HT-29 [5] = assay: Reduction of cell viability in human HT29 cells at 10 uM followed by illumination at 2.5 W/cm'2 cold light for 40 seconds by XTT assay; assay type: functional, cell-based
HT-29 [6] = assay: Reduction of cell viability in human HT29 cells at 2 uM followed by illumination at 2.5 W/cm'2 cold light for 40 seconds by XTT assay; assay type: functional, cell-based

Cc1cc(O)c2c(c1)[C@H](O)[C@]13Cc4cc(O)c5c(c4[C@H]1C=C[C@@H](O)[C@@]3(O)C2=O)C(=O)c1cccc(O)c1C5=O
Activity (Oryctolagus cuniculus [1]): Active
Activity (Pseudomonas aeruginosa): inactive
Activity (J774.A1 [2]): Active
Activity (J774.A1 [3]): Active
Activity (Oryctolagus cuniculus [4]): Active

Cc1cc(O)c2c(c1)[C@H](O)[C@]13Cc4cc(O)c5c(c4[C@H]1C=C[C@@H](O)[C@@]3(O)C2=O)C(=O)c1c(O)ccc(O)c1C5=O
Activity (HT-29 [5]): Active
Activity (Pseudomonas aeruginosa): inactive
Activity (HT-29 [6]): Active

Cc1cc(O)c2c(c1)[C@H](O)[C@]13Cc4cc(O)c5c(c4[C@H]1C=C[C@@H](O)[C@H]3OC2=O)C=C1C(=O)C=CC(O)=C1C5=O
Activity (Oryctolagus cuniculus [1]): inactive
Activity (Pseudomonas aeruginosa): inactive
Activity (J774.A1 [3]): inactive

Cc1cc(O)c2c(c1)C(=O)c1cccc(O)c1C2=O
Activity (Oryctolagus cuniculus [1]): inactive
Activity (Pseudomonas aeruginosa): inactive
Activity (J774.A1 [3]): inactive

Reference: ChEMBL document CHEMBL1155818, “Uredinorubellins and caeruleoramularin, photodynamically active anthraquinone derivatives produced by two species of the genus ramularia” (J Nat Prod, 2008)
